Measurements from patent publication US6984633B2, “Method to treat cardiofibrosis with a combination therapy of an angiotensin II antagonist and epoxymexrenone” (G.D Searle & Co., priority 1995, dated 2006).
Where two headings read alike, the source gives them in different places.

What was measured:
pressor response to AII [1] = assay: Assay C: In vivo intragastric pressor assay response for AII antagonists; parameters: species or system rat; details: dose not given, intraduodenally
pressor response to AII [2] = assay: as above; parameters: species or system rat; details: dose not given, intragastrically
Description: Assay C: In Vivo Intragastric Pressor Assay Response for All Antagonists
Male Sprague-Dawley rats weighing 225-300 grams were anesthetized with methohexital (30 mg/kg, i.p.) and catheters were implanted into the femoral artery and vein. The catheters were tunneled subcutaneously to exit dorsally, posterior to the head and between the scapulae. The catheters were filled with heparin (1000 units/ml of saline). The rats were returned to their cage and allowed regular rate chow and water ad libitum. After full recovery from surgery (3-4 days), rats were placed in Lucite holders and the arterial line was connected to a pressure transducer. Arterial pressure was recorded on a Gould polygraph (mmHg). Angiotensin II was administered as a 30 ng/kg bolus via the venous catheter delivered in a 50 μl volume with a 0.1 ml saline flush. The pressor response in mm Hg was measured by the difference from pre-injection arterial pressure to the maximum pressure achieved. The AII injection was repeated every 10 minutes until three consecutive injections yielded responses within 4 mmHg of each other. These three responses were then averaged and represented the control response to AII. The test compound was suspended in 0.5% methylcellulose in water and was administered by gavage. The volume administered was 2 ml/kg body weight. The standard dose was 3 mg/kg. Angiotensin II bolus injections were given at 30, 45, 60, 75, 120, 150, and 180 minutes after gavage. The pressor response to AII was measured at each time point. The rats were then returned to their cage for future testing. A minimum of 3 days was allowed between tests. Percent inhibition was calculated for each time point following gavage by the following formula: [(Control Response—Response at time point)/Control Response]×100.

[3] = biological target: angiotensin II AT1 receptor; assay: Assay A: Angiotensin II binding activity, 125I-AII displacement in rat uterine membrane preparation
Description: Assay A: Antiotensin II Binding Activity
Compounds of the invention were tested for ability to bind to the smooth muscle angiotensin II receptor using a rat uterine membrane preparation. […] The reaction was initiated by the addition of membrane protein and the mixture was incubated at 25° C. for 60 min. The incubation was terminated with ice-cold 50 mM Tris-HCl (pH 7.5) and the mixture was filtered to separate membrane-bound labelled peptide from the free ligand. The incubation tube and filter were washed with ice-cold buffer. Filters were assayed for radioactivity in a Micromedic gamma counter. Nonspecific binding was defined as binding in the presence of 10 μM of unlabelled AII. Specific binding was calculated as total binding minus nonspecific binding. […] Binding data were analyzed by a nonlinear least-squares curve fitting program.

rabbit aortic rings = assay: Assay B: In vitro vascular smooth muscle response for AII, antagonist activity in aortic rings; format: cell-based; details: Oryctolagus cuniculus, two determinations separated by /, read-out: Assay B pA2 (converted)
Description: Assay B: In Vitro Vascular Smooth Muscle-Response for AII
The compounds of the invention were tested for antagonist activity in rabbit aortic rings. Male New Zealand white rabbits (2-2.5 kg) were sacrificed using an overdose of pentobarbital and exsanguinated via the carotid arteries. The thoracic aorta was removed, cleaned of adherent fat and connective tissue and then cut into 3-mm ring segments. The endothelium was removed from the rings by gently sliding a rolled-up piece of filter paper into the vessel lumen. The rings were then mounted in a water-jacketed tissue bath, maintained at 37° C., between moveable and fixed ends of a stainless steel wire with the moveable end attached to an FT03 Grass transducer coupled to a Model 7D Grass Polygraph for recording isometric force responses. The bath was filled with 20 ml of oxygenated (95% oxygen/5% carbon dioxide) Krebs solution of the following composition (mM); 130 NaCl, 15 NaHCO3, […], 1.2 NaH2PO4, 1.2 MgSO4, 2.5 CaCl2, and 11.4 glucose. The preparations were equilibrated for one hour before approximately one gram of passive tension was placed on the rings. Angiotensin II concentration-response curves were then recorded (3×10^−10 to 1×10^−5 M). Each concentration of AII was allowed to elicit its maximal contraction, and then AII was washed out repeatedly for 30 minutes before rechallenging with a higher concentration of AII. Aorta rings were exposed to the test antagonist at 10^−5 M for 5 minutes before challenging with AII. Adjacent segments of the same aorta ring were used for all concentration-response curves in the presence of absence of the test antagonist. The effectiveness of the test compound was expressed in terms of pA2 values and were calculated according to H. O. Schild [Br. J. Pharmacol. Chemother., 2, 189-206 (1947)]. The pA2 value is the concentration of the antagonist which increases the EC50 value for AII by a factor of two. Each test antagonist was evaluated in aorta rings from two rabbits.

myocardial fibrosis = details: animal models, cited from earlier work

| Structure (SMILES) | Assay C Duration (pressor response to AII [2]) [min] | IC50 [3] [nM] | other results |
| --- | --- | --- | --- |
| CCCCc1nn(CCCC)c(=O)n1Cc1ccc(-c2ccccc2C(=O)O)cc1 [Compound 78] | – | – | Assay C Duration (pressor response to AII [1]): 60 to 100 min |
| CCCCc1nn(CCCc2ccccc2)c(=O)n1Cc1ccc(-c2ccccc2-c2nn[nH]n2)cc1 [Compound 81] | 180 | – | – |
| CCCCc1nn(CC(=O)c2ccccc2)c(=O)n1Cc1ccc(-c2ccccc2-c2nn[nH]n2)cc1 [Compound 82] | 180 | – | – |
| CCCCc1nn(CC(O)c2ccccc2)c(=O)n1Cc1ccc(-c2ccccc2-c2nn[nH]n2)cc1 (stereo not drawn) [Compound 83] | >180 | – | – |
| CCCCc1nn(CC(=O)OC(C)(C)C)c(=O)n1Cc1ccc(-c2ccccc2-c2nn[nH]n2)cc1 [Compound 84] | 30 | – | – |
| CCCCc1nn(CC(OCC(=O)O)c2ccccc2)c(=O)n1Cc1ccc(-c2ccccc2-c2nn[nH]n2)cc1 (stereo not drawn) [Compound 91] | >180 | – | – |
| CCCCc1nn(CC(C)c2cc(OC)ccc2OC)c(=O)n1Cc1ccc(-c2ccccc2-c2nn[nH]n2)cc1 (stereo not drawn) [Compound 98] | – | 22 | Kb (rabbit aortic rings): 7.94 nM |
| CCCCc1nc2c(OC(C)=O)nnc(OC(C)=O)c2n1Cc1ccc(-c2ccccc2-c2nnn[nH]2)cc1 [Compound 125] | – | 40 | – |
| CCCCc1cn(CCc2ccccc2)c(=O)n1Cc1ccc(-c2ccccc2-c2nnn[nH]2)cc1 [Compound 133] | 90 to 120 | – | – |
| CCCCc1nc(CCCC)n(Cc2ccc(-n3c(Cl)cc(Cl)c3-c3nnn[nH]3)cc2)n1 [Compound 143] | – | – | Assay C Duration (pressor response to AII [1]): 75 min |
| CCCn1nc(C(F)F)nc1Cc1ccc(-c2ccccc2-c2nnn[nH]2)nc1 [Compound 162] | – | 380 | – |
| CCCCn1nc(C(F)F)nc1Cc1ccc(-c2ccccc2-c2nnn[nH]2)nc1 [Compound 163] | – | 420 | – |
| CC(=O)S[C@@H]1CC2=CC(=O)CC[C@]2(C)[C@H]2CC[C@@]3(C)[C@@H](CC[C@@]34CCC(=O)O4)[C@H]12 [spironolactone] | – | – | prevention of myocardial fibrosis (myocardial fibrosis): prevents myocardial fibrosis in animal models; prevention of myocardial fibrosis (myocardial fibrosis; listed as Spironolactone): prevent fibrosis in animal models irrespective of the development of left ventricular hypertrophy and the presence of hypertension |
